Results taken from ChEMBL document CHEMBL5625223 (Eur J Med Chem, 2023).

What was measured:
Type in all cases: cell-based
[1] = biological target: 5-hydroxytryptamine receptor 2A (Homo sapiens, UniProt P28223); assay: Displacement of [3H]ketanserin from human 5-HT2A receptor expressed in HEK293 cells at 10 uM incubated for 1 hr relative to control
[2] = biological target: T1, 5-hydroxytryptamine receptor 2B (Homo sapiens, UniProt P41595); assay: Displacement of [3H]-LSD from human 5-HT2B receptor expressed in HEK cells at 10 uM incubated for 1 hr relative to control
[3] = biological target: T2, 5-hydroxytryptamine receptor 2C (Homo sapiens) (UniProt P28335); assay: Displacement of [3H]-Mesulergine from human 5-HT2C expressed in Flp-In-T-REx-293 cells at 10 uM incubated for 1 hr relative to control
T2 sequence (whole entry): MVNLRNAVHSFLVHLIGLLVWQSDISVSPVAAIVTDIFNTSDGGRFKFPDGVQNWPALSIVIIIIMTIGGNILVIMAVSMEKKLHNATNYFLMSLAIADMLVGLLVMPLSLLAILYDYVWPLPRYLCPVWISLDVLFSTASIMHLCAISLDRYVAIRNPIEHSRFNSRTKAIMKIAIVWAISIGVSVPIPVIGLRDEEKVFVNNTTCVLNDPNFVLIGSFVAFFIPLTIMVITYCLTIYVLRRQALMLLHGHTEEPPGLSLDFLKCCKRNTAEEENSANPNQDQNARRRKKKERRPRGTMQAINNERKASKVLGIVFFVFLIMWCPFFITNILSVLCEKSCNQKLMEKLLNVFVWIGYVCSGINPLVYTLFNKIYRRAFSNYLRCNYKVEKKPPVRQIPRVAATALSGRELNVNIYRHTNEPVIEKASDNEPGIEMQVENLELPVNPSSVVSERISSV

[4] = biological target: T3, Adenosine receptor A1 (Homo sapiens, UniProt P30542); assay: Displacement of […] from human A1AR expressed in Flp-In-T-REx-293 cells assessed as inhibition constant
T3 sequence (P30542 whole entry): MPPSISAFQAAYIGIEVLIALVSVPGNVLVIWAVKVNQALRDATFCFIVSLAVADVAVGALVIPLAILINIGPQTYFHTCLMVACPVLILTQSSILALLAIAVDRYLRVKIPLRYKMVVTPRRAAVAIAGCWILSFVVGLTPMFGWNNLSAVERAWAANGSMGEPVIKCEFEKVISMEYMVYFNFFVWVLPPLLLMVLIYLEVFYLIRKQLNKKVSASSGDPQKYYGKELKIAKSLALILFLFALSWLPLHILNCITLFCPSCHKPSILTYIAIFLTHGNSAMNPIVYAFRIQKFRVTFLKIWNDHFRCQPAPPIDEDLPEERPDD

[5] = biological target: T4, Adenosine receptor A3 (Homo sapiens, UniProt P0DMS8); assay: Displacement of […] from human A3AR expressed in HEK cells assessed as inhibition constant
T4 sequence (P0DMS8 whole entry): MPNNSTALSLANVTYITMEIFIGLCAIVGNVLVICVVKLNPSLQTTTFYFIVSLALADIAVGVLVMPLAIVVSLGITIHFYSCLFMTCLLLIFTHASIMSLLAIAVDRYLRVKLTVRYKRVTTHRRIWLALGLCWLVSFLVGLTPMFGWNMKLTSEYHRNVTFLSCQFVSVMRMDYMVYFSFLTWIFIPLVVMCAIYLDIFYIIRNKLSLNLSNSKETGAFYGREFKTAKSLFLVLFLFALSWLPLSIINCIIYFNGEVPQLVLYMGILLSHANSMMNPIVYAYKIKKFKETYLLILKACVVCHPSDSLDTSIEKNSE

[6] = biological target: Adenosine receptor A2a (Homo sapiens) (UniProt P29274); assay: Displacement of […] from human A2AR expressed in HEK cells at 10 uM relative to control
[7] = biological target: T5, Adenosine receptor A3 (Homo sapiens) (UniProt P0DMS8); assay: Displacement of […] from human A3AR expressed in HEK cells at 10 uM relative to control
T5 sequence (whole entry): T4 sequence (P0DMS8 whole entry)

[8] = biological target: T6, 5-hydroxytryptamine receptor 2C (Homo sapiens, UniProt P28335); assay: Displacement of [3H]-Mesulergine from human 5-HT2C expressed in Flp-In-T-REx-293 cells assessed as inhibition constant incubated for 1 hr; conditions: read-out: Ki
T6 sequence (P28335 whole entry): T2 sequence (whole entry)

[9] = biological target: T1, 5-hydroxytryptamine receptor 2B; assay: Displacement of [3H]-LSD from human 5-HT2B receptor expressed in HEK cells assessed as inhibition constant incubated for 1 hr

T1 sequence (P41595 whole entry): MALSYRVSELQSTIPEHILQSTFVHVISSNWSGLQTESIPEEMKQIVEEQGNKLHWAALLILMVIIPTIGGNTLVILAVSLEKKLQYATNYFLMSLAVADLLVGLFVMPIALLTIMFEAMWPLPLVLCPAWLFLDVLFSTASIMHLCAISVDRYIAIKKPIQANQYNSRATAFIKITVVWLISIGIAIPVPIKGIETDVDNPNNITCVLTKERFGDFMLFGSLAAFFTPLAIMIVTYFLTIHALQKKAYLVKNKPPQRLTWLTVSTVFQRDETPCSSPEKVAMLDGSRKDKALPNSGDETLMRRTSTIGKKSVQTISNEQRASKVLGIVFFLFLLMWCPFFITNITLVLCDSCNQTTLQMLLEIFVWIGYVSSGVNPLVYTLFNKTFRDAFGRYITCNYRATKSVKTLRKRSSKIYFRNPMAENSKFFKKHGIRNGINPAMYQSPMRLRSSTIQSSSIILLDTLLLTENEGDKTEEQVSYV
Adenosine receptor A2a (Homo sapiens), sequence (P29274 whole entry): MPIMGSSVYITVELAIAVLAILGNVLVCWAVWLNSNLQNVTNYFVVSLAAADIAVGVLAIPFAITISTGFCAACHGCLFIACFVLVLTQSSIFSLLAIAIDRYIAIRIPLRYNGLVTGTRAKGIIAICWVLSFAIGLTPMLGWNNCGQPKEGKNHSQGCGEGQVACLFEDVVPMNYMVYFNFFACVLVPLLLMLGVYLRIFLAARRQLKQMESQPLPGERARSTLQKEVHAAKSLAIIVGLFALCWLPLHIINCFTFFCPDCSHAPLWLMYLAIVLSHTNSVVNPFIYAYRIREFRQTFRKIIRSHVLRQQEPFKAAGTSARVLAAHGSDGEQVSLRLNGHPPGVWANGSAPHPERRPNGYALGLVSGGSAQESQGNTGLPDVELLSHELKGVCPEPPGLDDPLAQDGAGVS
5-hydroxytryptamine receptor 2A, sequence (P28223 whole entry): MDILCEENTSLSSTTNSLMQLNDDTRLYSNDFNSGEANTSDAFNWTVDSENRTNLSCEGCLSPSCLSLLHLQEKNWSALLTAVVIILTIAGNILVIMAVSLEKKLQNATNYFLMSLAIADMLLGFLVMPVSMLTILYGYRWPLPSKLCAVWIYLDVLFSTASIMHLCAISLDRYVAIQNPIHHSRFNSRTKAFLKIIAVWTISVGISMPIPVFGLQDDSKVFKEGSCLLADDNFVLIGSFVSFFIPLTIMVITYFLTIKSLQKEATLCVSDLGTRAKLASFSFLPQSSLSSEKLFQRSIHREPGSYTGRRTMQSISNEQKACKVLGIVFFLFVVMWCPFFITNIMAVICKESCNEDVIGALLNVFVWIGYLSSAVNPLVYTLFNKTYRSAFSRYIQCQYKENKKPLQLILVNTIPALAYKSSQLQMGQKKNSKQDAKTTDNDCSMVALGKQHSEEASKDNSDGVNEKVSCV

SMILES	Activity [1]	Activity [3]	Ki [4]	Ki [5]	Activity [6]	Ki [8]	Ki [9]	also measured
Nc1nc(I)nc2c1ncn2[C@H]1[C@H](O)[C@H](O)[C@]2(CCl)C[C@H]12	0%	12%	147 nM	390 nM	–	–	–	Activity [2]: 11%
COCCN(CCOC)C(=O)[C@]12C[C@H]1[C@H](n1cnc3c(NC(C4CC4)C4CC4)nc(Cl)nc31)[C@@H](O)[C@H]2O (single isomer, unassigned)	0%	38%	–	–	34%	–	–	Activity [7]: 30%
Nc1nc(I)nc2c1ncn2[C@H]1[C@H](O)[C@H](O)[C@]2(CO)C[C@H]12	-27%	-38%	–	–	–	–	–	Activity [2]: -3%
COCCN(CCOC)C(=O)[C@]12C[C@H]1[C@H](n1cnc3c(N)nc(Cl)nc31)[C@@H](O)[C@H]2O (single isomer, unassigned)	3%	12%	–	–	–	–	–	Activity [2]: 36%; Activity ([7]; filed as agonist): 51%
OC[C@@]12C[C@@H]1[C@@H](n1cnc3c(NC(C4CC4)C4CC4)nc(I)nc31)[C@H](O)[C@@H]2O	35%	–	13.4 nM	7810 nM	–	249 nM	–	Activity ([6]; filed as agonist): 63%
O[C@@H]1[C@H](O)[C@@H]2C[C@@H]2[C@H]1n1cnc2c(NC(C3CCCC3)C3CCCC3)nc(Cl)nc21	22%	–	–	–	24%	–	–	–
CC(C)[C@@H](Nc1nc(I)nc2c1ncn2[C@H]1[C@H](O)[C@H](O)[C@]2(CO)C[C@H]12)C1CC1	7%	–	30.7 nM	11700 nM	–	904 nM	81.9 nM	Activity ([6]; filed as agonist): 60%
OC[C@@]12C[C@@H]1[C@@H](n1cnc3c(NC(C4CCCCC4)C4CCCCC4)nc(Cl)nc31)[C@H](O)[C@@H]2O	–	–	–	16600 nM	7%	–	–	Activity ([1]; filed as antagonist): 47%
CSC[C@@]12C[C@@H]1[C@@H](n1cnc3c(N)nc(I)nc31)[C@H](O)[C@@H]2O	0%	12%	1350 nM	92.5 nM	–	–	–	Activity [2]: 12%
O[C@H]1[C@H](n2cnc3c(NC(C4CCCCC4)C4CCCCC4)nc(Cl)nc32)[C@H]2C[C@@]2(CCl)[C@H]1O	–	–	–	9320 nM	-9%	73.5 nM	–	–
CSC[C@@]12C[C@@H]1[C@@H](n1cnc3c(NC(C4CC4)C4CC4)nc(I)nc31)[C@H](O)[C@@H]2O	16%	–	466 nM	–	–	493 nM	522 nM	Activity ([6]; filed as agonist): 40%; Activity ([7]; filed as agonist): 62%
NC[C@H]1O[C@@H](n2cnc3c(N[C@H](C4CCC4)C4CC4)nc(I)nc32)[C@H](O)[C@@H]1O	9%	-1%	147 nM	–	39%	–	178 nM	Activity ([7]; filed as agonist): 56%
OC[C@H]1O[C@@H](n2cnc3c(N[C@H](C4CCC4)C4CC4)nc(I)nc32)[C@H](O)[C@@H]1O	6%	-1%	21.3 nM	–	–	–	–	Activity ([2]; filed as antagonist): 44%; Activity ([6]; filed as agonist): 72%; Activity [7]: 34%
O[C@H]1[C@H](n2cnc3c(NC(C4CC4)C4CC4)nc(Cl)nc32)[C@H]2C[C@@]2(CF)[C@H]1O	14%	–	5.95 nM	3700 nM	–	–	–	Activity ([3]; filed as antagonist): 47%; Activity ([6]; filed as agonist): 55%
CSC[C@@]12C[C@@H]1[C@@H](n1cnc3c(NC(C4CC4)C4CC4)nc(Cl)nc31)[C@H](O)[C@@H]2O	19%	–	63.2 nM	932 nM	–	772 nM	–	–
CCOC(=O)[C@@]12C[C@@H]1[C@@H](n1cnc3c(NC(C4CCCC4)C4CCCC4)nc(Cl)nc31)[C@H](O)[C@@H]2O	–	–	–	9720 nM	-22%	139 nM	239 nM	Activity ([1]; filed as antagonist): 42%
CCCCSC[C@@]12C[C@@H]1[C@@H](n1cnc3c(NC(C4CCCC4)C4CCCC4)nc(Cl)nc31)[C@H](O)[C@@H]2O	22%	27%	–	–	8%	–	549 nM	–
Ic1nc(N[C@H](C2CCC2)C2CC2)c2nc[nH]c2n1	-10%	5%	648 nM	–	–	–	313 nM	–
